{
  "source": "patent US12366579B2",
  "about": "“Sulfur-heterocycle exchange chemistry and uses thereof” (University of Virginia Patent Foundation, priority 2019, dated 2025)",
  "key": {"[1]": {"system": "HEK293T soluble proteomes", "assay": "LC-MS chemical proteomics of probe-modified sites in cell proteomes", "format": "binding, human", "conditions": "for unique-modified tyrosine sites among 1,2,4-SuTEx probes: FIG. 4D; for tyrosine specificity, Y/K ratio of modified sites: LC-MS chemical proteomics", "experimental": "Proteomes were diluted to 2.3 mg/mL in PBS and sample aliquots (432 μL) were treated with sulfonyl-triazole or -fluoride probes at the indicated concentrations (5 μL, 100× stock in DMSO), mixed gently and incubated for 1 h at room temperature. Probe-modified proteomes were subjected to CuAAC conjugation to desthiobiotin-PEG3-azide (10 μL of 10 mM stock in DMSO; final concentration of 200 μM) using TCEP (10 μL of fresh 50 mM stock in water; 1 mM final concentration), TBTA ligand (33 μL of a 1.7 mM 4:1 t-butanol/DMSO stock, 100 μM final concentration), and CuSO4 (10 μL of 50 mM stock, 1 mM final concentration). Samples were mixed by vortexing and then incubated for 1 h at room temperature. Excess reagents were removed by chloroform-methanol extraction as previously described^51. Protein pellets were re-suspended in 500 μL of 6M urea/25 mM ammonium bicarbonate followed by DTT reduction and IAA alkylation as previously described^5. Excess reagents were removed by chloroform/methanol extraction as described above, and the protein pellet was re-suspended in 500 μL of 25 mM ammonium bicarbonate and then digested to peptides using trypsin/Lys-C (7.5 μg in 15 μL of ammonium bicarbonate, sequencing grade from Promega, Madison, Wisconsin, United States of America) was added to the mixture and incubated for 3 hrs at 37° C. Probe-modified peptides were enriched by avidin affinity chromatography, eluted, and prepared for LC-MS analysis as previously described^51.\nA top 10 data-dependent acquisition MS method was used.\nSulfonyl-probe modifications of tyrosine, lysine, and other amino acids were included as a variable (common) modification of +635.27374 Da. […] A Byonic score of 300 was applied for a more inclusive initial evaluation of the search results and thereby consider more possible probe-modified sites. MS1 and MS2 spectra corresponding to the highest-scoring tyrosine- and lysine (internal or non-C terminal)-modified sequences (˜50-100 peptides) were manually verified. […] Distinct peptides containing probe-modified amino acid residues (termed sites) were determined by identifying all unique razor protein and site combinations across all of the proteomes tested.\nTo compare amino acid residues modified by sulfonyl probes, protein and peptide identifications were accomplished as described above with variable (common) modification of +635.27374 Da on the following amino acid residues: cysteine, aspartic acid, glutamic acid, histidine, lysine, methionine, asparagine, glutamine, arginine, serine, threonine, tryptophan, and tyrosine. For these amino acid comparisons, carbamidomethylation (+57.021464 Da) of cysteines was searched as a variable/common modification to allow for the potential of probe modification on cysteines. Comparisons of probe-modified sites across all probes and cell lines tested were performed using the R package ggplot2 (online at tidyverse.org). Venn diagrams for comparisons were generated using the VennDiagram R package^52.\nProteomes were digested with trypsin protease and desthiobiotin-modified peptides enriched by avidin affinity chromatography, released, and analyzed by high-resolution liquid chromatography-mass spectrometry (LC-MS). Probe-modified peptide-spectrum matches (PSMs) that met a quality control confidence criteria of ≥300 Byonic score^31 and ≤5 ppm mass accuracy were selected for further manual evaluation."}, "[2]": {"assay": "HPLC assay for solution reactivity of sulfonyl triazole fragments with p-cresol", "format": "physicochemical", "conditions": "for solution reactivity with p-cresol: HPLC assay, TMG base; for time to completion of reaction with p-cresol: TMG 1.1 equivalents, on ice", "experimental": "HPLC Assay for Profiling Solution Reactivity and Stability of Sulfonyl Triazole Fragments\nThe following reagents were prepared and stored on ice prior to use. 0.1 M solution of caffeine in acetonitrile, 1.0 M solution of n-butylamine, p-cresol, tetramethylguanidine […], 1 M HOAc in ACN and 10 mM solution of SuTEx fragment in DMF-ACN mixture (10:90, v/v). 500 μL of fragment solution was transferred to a dram vial on ice. To the mixture, 5.5 μL of TMG and 5.5 μL of p-cresol or n-butylamine was added and solutions were stirred on ice for 6 h. To monitor reactivity, 50 μL aliquots were removed at indicated time points and quenched with 10 μL of a 1:1 mixture of caffeine and HOAc. Samples were injected (1 μL) and analyzed by reverse-phase HPLC on a Shimadzu 1100 Series spectrometer (Shimadzu, Kyoto, Japan) with UV detection at 254 nm. Reaction progress was evaluated by monitoring consumption of starting material (SuTEx fragment) normalized to caffeine standard. Chromatographic separation was performed using a Phenomenex Kinetex C18 column (2.6 μm, 50×4.6 mm) (Phenomenex, Torrance, California, United States of America). Mobile phases A and B were composed of H2O+0.1% HOAc and ACN+0.1% HOAc, respectively. Samples were analyzed using the following analytical conditions: using a flow rate of 0.8 ml min^−1, the gradient was as follows: 0-0.5 min, 15% B; 0.5-6.5 min 85% B; 6.5-7 min 100% B: 7-8.5 min 100% B; 8.5-9 min 15% B; 9-9.8 min 15% B."}, "DM93 soluble proteomes": {"system": "DM93 soluble proteomes", "assay": "Proteome-wide competitive chemical proteomics of SuTEx fragments vs HHS-482", "format": "binding, human", "conditions": "fragment 50 μM, 30 min, 37° C.", "experimental": "Heavy and light proteomes (432 μl of each) were diluted to 2.3 mg ml^−1 in PBS and sample aliquots (432 μl) were treated with SuTEx fragment at the indicated concentrations (5 μl, 100× stock in DMSO), mixed gently and incubated for 30 min at 37° C. Samples were then treated with HHS-482 (5 μL, 5 mM stock in DMSO) for 30 min at 37° C. Probe-modified proteomes were conjugated to desthiobiotin-PEG3-azide followed by enrichment of probe-modified peptides for nano-electrospray ionization-LC-MS/MS analyses as previously described^57.\nThe chemical proteomic method for functional tyrosine profiling^72 was tailored to investigate AG/LG effects on SuTEx fragment reactivity in complex proteomes. In brief, isotopically light and heavy soluble proteomes from DM93 melanoma cells cultured by stable isotopic labeling by amino acids in cell culture (SILAC^80) media were used for quantitative liquid chromatography-mass spectrometry (LC-MS) studies. Light and heavy DM93 proteomes were treated with dimethyl sulfoxide (DMSO) vehicle or SuTEx fragment (50 μM, 30 min, 37° C.), respectively, followed by labeling with the tyrosine-reactive probe HHS-482 described hereinabove (50 μM, 30 min, 37° C.) and copper-catalyzed azide-alkyne cycloaddition (CuAAC) conjugation of a desthiobiotin-azide enrichment tag. Proteomes were digested with trypsin protease, HHS-482-modified peptides enriched by avidin chromatography and analyzed by high-resolution LC-MS/MS and bioinformatics as described hereinabove.\nTo evaluate substituent effects on proteome activity, reactivity profiles of each respective SuTEx fragment were compared across >1500 total distinct HHS-482-modified tyrosine sites from >650 detected proteins. Fragments were screened across independent biological replicates (n=2-3) and high-quality tyrosine site annotations were identified by detection in at least a single biological replicate from each fragment dataset, probe-specific enrichment (HHS-482 probe/DMSO SILAC ratio (SR)>5), and quality control confidence criteria of ≥300 Byonic score^31, […] protein false discovery rate (FDR), and ≤5 ppm mass accuracy in order to minimize the potential for false positives^72. SILAC ratios (SR) from competitive studies (Light-DMSO/Heavy-fragment) were used to identify fragment-competed tyrosine residues as sites showing >75% reduction in enrichment by HHS-482 compared with DMSO vehicle control (i.e. liganded tyrosines, SR>4). In total, 305 liganded tyrosines on 213 distinct proteins were identified, corresponding to ˜30% and ˜44% of total quantified tyrosines and proteins, respectively. […]"}, "human DPP3 (hDPP3)": {"molecular_target": "T1, human DPP3 (hDPP3) (Homo sapiens, UniProt Q9NY33)", "T1 construct": "FLAG (C); host or cells: HEK293T, transient transfection; soluble proteome used unpurified", "T1 sequence (Q9NY33 1-737)": "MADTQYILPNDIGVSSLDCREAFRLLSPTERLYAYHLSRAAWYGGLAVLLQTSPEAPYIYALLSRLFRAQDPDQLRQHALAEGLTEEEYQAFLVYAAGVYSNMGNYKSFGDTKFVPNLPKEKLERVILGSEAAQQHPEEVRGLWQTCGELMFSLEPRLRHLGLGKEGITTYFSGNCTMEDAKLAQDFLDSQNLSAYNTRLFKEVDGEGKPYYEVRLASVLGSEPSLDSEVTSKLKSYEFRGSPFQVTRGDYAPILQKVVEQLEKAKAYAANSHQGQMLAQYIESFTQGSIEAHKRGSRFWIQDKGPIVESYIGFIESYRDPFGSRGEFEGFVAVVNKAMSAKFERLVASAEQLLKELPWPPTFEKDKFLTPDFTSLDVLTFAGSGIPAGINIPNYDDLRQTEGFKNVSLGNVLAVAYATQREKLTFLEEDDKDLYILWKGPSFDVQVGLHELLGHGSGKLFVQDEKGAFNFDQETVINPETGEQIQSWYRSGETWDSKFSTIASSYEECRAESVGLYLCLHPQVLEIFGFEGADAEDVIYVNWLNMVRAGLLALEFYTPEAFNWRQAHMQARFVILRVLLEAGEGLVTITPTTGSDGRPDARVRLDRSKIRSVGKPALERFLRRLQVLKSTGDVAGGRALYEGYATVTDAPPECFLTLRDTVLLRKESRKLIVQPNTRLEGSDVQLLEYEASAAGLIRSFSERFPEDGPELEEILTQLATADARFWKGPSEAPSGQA", "assay": "Gel-based competitive chemical proteomic screen with HHS-482, recombinant hDPP3-HEK293T soluble proteomes", "format": "binding", "conditions": "50 μM fragment, 37° C., 30 min", "experimental": "Gel-Based Chemical Proteomic Assay\nCell pellets were lysed in PBS and fractionated (100,000×g, 45 min, 4° C.) to generate soluble and membrane fractions. Protein concentrations were determined using Bio-Rad DC protein assay (Bio-Rad Laboratories, Inc., Hercules, California, United States of America), and adjusted to 1 mgml^−1 in PBS. Proteome samples (49 μl aliquots) were treated with DMSO vehicle or indicated concentration of SuTEx fragment (1 μL, 50× stock in DMSO) for 30 min at 37° C. Samples were then treated with HHS-482 probe (1 μL, 2.5 mM stock in DMSO) for 30 min at 37° C. Probe labeled samples were conjugated to rhodamine-azide (1 μL, 1.25 mM stock; final concentration of 25 μM) by copper-catalyzed azide-alkyne cycloadditions (CuAAC) for 1 h at room temperature followed by SDS-PAGE and in-gel fluorescence scanning as previously described^57."}},
  "data": [
    {"smiles": "C#CCNC(=O)c1ccc(S(=O)(=O)n2cnc(-c3ccccc3)n2)cc1", "note": "[HHS-481, 4-((3-Phenyl-1H-1,2,4-triazol-1-yl)sulfonyl)-N-(prop-2-yn-1-yl)benzamide]", "values": [
      {"measurement": "total number of probe-modified sites (Y and K combined)", "setting": "[1]; FIG. 4A", "value": "~4,000 sites"},
      {"measurement": "unique-modified tyrosine sites among 1,2,4-SuTEx probes", "setting": "[1]", "value": 445, "unit": "sites"},
      {"measurement": "tyrosine specificity, Y/K ratio of modified sites", "setting": "[1]; FIG. 4A", "value": 3.5}
    ]},
    {"smiles": "C#CCNC(=O)c1ccc(S(=O)(=O)n2cnc(-c3ccc(OC)cc3)n2)cc1", "note": "[HHS-482, 4-((3-(4-Methoxyphenyl)-1H-1,2,4-triazol-1-yl)sulfonyl)-N-(prop-2-yn-1-yl)benzamide]", "values": [
      {"measurement": "total number of probe-modified sites (Y and K combined)", "setting": "[1]; FIG. 4A", "value": "~3,000 sites"},
      {"measurement": "unique-modified tyrosine sites among 1,2,4-SuTEx probes", "setting": "[1]", "value": 112, "unit": "sites"},
      {"measurement": "tyrosine specificity, Y/K ratio of modified sites", "setting": "[1]; FIG. 4A", "value": "~5"},
      {"measurement": "fraction of probe-modified residues/peptides assigned to tyrosines", "setting": "[1]; high confidence sites", "value": "~75", "unit": "%"}
    ]},
    {"smiles": "C#CCNC(=O)c1ccc(S(=O)(=O)n2cnc(-c3ccc(F)cc3)n2)cc1", "note": "[HHS-483, 4-((3-(4-Fluorophenyl)-1H-1,2,4-triazol-1-yl)sulfonyl)-N-(prop-2-yn-1-yl)benzamide]", "values": [
      {"measurement": "proteome reactivity and tyrosine specificity compared with HHS-481", "setting": "[1]; FIG. 4A", "value": "comparable reactivity and slightly lowered tyrosine specificity"},
      {"measurement": "unique-modified tyrosine sites among 1,2,4-SuTEx probes", "setting": "[1]", "value": 433, "unit": "sites"}
    ]},
    {"smiles": "COc1ccc(-c2ncn(S(=O)(=O)c3ccc(F)cc3)n2)cc1", "note": "[JWB135, 1-((4-Fluorophenyl)sulfonyl)-3-(4-methoxyphenyl)-1H-1,2,4-triazole]", "values": [
      {"measurement": "solution reactivity with p-cresol", "setting": "[2]", "value": "attenuated reactivity"}
    ]},
    {"smiles": "COc1ccc(-c2ncn(S(=O)(=O)c3ccc(OC)cc3)n2)cc1", "note": "[JWB136, 3-(4-Methoxyphenyl)-1-((4-methoxyphenyl)sulfonyl)-1H-1,2,4-triazole]", "values": [
      {"measurement": "solution reactivity with p-cresol", "setting": "[2]", "value": "incomplete reaction"}
    ]},
    {"smiles": "COc1ccc(-c2ncn(S(=O)(=O)c3ccc(C#N)cc3)n2)cc1", "note": "[JWB137, 4-((3-(4-Methoxyphenyl)-1H-1,2,4-triazol-1-yl)sulfonyl)benzonitrile]", "values": [
      {"measurement": "time to completion of reaction with p-cresol", "setting": "[2]", "value": "~5", "unit": "min"}
    ]},
    {"smiles": "COc1ccc(-c2ncn(S(=O)(=O)c3cccnc3)n2)cc1", "note": "[JWB141, 3-((3-(4-Methoxyphenyl)-1H-1,2,4-triazol-1-yl)sulfonyl)pyridine]", "values": [
      {"measurement": "time to completion of reaction with p-cresol", "setting": "[2]", "value": "~30", "unit": "min"}
    ]},
    {"smiles": "O=S(=O)(c1ccc(F)cc1)n1cnc(-c2ccc(C(F)(F)F)cc2)n1", "note": "[JWB150, 1-((4-Fluorophenyl)sulfonyl)-3-(4-(trifluoromethyl)phenyl)-1H-1,2,4-triazole]", "values": [
      {"measurement": "liganded tyrosine frequency (SR>4)", "setting": "DM93 soluble proteomes", "value": "> 25", "unit": "%"},
      {"measurement": "competition against recombinant DPP3", "setting": "human DPP3 (hDPP3); also substantial proteome cross-reactivity", "value": "potent competition"},
      {"measurement": "solution reactivity with p-cresol", "setting": "[2]", "value": "comparable reaction"}
    ]},
    {"smiles": "O=S(=O)(c1ccc(-c2ccccc2)cc1)n1cnc(-c2ccncc2)n1", "note": "[JWB202, 4-(1-([1,1′-Biphenyl]-4-ylsulfonyl)-1H-1,2,4-triazol-3-yl)pyridine]", "values": [
      {"measurement": "blockade of DPP3 probe (HHS-482) labeling", "setting": "human DPP3 (hDPP3)", "value": "~50", "unit": "%"}
    ]}
  ]
}
